{
  "source": "patent US9018173B2",
  "about": "“Materials and methods for suppressing inflammatory and neuropathic pain” (Indiana University Research and Technology Corp., priority 2010, dated 2015)",
  "key": {"[1]": {"test_system": "anxiety-associated behavior", "experiment": "Elevated plus maze (EPM)", "assay_type": "in vivo, C57BL6 mice", "settings": "for Elevated Plus Maze: Closed arm entries / Elevated Plus Maze: Closed arm latency to enter / Elevated Plus Maze: Closed arm latency to exit / Elevated Plus Maze: Open arm entries / Elevated Plus Maze: Open arm latency to enter / Elevated Plus Maze: Open arm latency to exit: C57BL6 mice, 1 h after injection, 5 min test"}, "spatial memory": {"test_system": "spatial memory", "experiment": "Morris water maze test of spatial/reference memory", "assay_type": "in vivo, mice", "settings": "10 mg/kg i.p., 1 h-7 d after administration", "description": "The rotarod test for motor coordination was performed as described with slight modifications. Following i.p. injection of vehicle or peptides, mice were tested with three trials each of fast and slow acceleration. The Morris water maze test was used to test reference/spatial memory. Mice were trained prior to the i.p. injection of TAT-Scramble or TAT-CBD3 peptides for 4 consecutive days (4 trials/day). Performance was evaluated 3 days following injection. Morris water maze test of spatial/reference memory. The Morris water maze test was used to test spatial memory. The maze consisted of a plastic pool (100 cm in diameter and 60 cm in depth) filled with water to a depth of 26.5 cm, with a clear Plexiglas stand (10 cm in diameter and 26 cm in height [i.e., 0.5 cm below the water's surface]) used as the hidden goal platform. The mice were trained prior to the injection for 4 consecutive days (4 trials/day). For each daily block of four trials, the mice were placed in the pool facing the wall. Trials were initiated from each of the four possible start locations (north, east, south, west) in a randomized manner. A maximum of 60 sec was allowed for each mouse to find the hidden platform. […] Mice were excluded from the study if their average latency to locate the platform on day 4 of the trials was greater than 50 sec. […]"}, "[2]": {"test_system": "dorsal root ganglion neurons", "settings": "10 μM, 12 h"}, "motor coordination": {"test_system": "motor coordination", "experiment": "Rotarod test for motor coordination", "assay_type": "in vivo, mouse (C57BL6)", "settings": "10 and 50 mg/kg i.p.", "description": "Rotarod test for motor coordination. The rotarod test was performed as described previously (Onyszchuk, G., He, Y. Y., Berman, N. E., & Brooks, W. M. Detrimental effects of aging on outcome from traumatic brain injury: a behavioral, magnetic resonance imaging, and histological study in mice. J. Neurotrauma. 25, 153-171 (2008)) with slight modifications. Briefly, the latency to fall off a rotating rod was measured at two different rotational accelerations (fast and slow). The rotarod device (IITC Life Science, Inc., Woodland Hills, Calif., USA) consists of a metal rod with hard plastic drums (diameter: 1.25 in) in each of five individual lanes. For slow acceleration, the device was accelerated from 1 rpm to 18 rpm over 90 seconds, with each trial lasting a maximum of 120 seconds. For fast acceleration, the device was accelerated from 1 rpm to 30 rpm over 90 seconds, with each trial lasting a maximum of 120 seconds. The trials ended when the mouse (C57BL6) either fell off the rod or clung to the rod as it made one complete rotation. The rotarod tests were performed before the injection to score the baseline latencies for each animal. These trials also served to acclimate the animals to the test paradigm. […] Performance was evaluated 3 days following injection."}, "[3]": {"test_system": "CRMP-2 binding to L1 and Ct-dis regions of CaV2.2", "experiment": "In vitro binding of L1-GST and Ct-dis-GST fusion proteins to CRMP-2", "parameters": "species or system rat", "settings": "peptides 10 μM", "excerpt": "In Vitro Protein Binding Assays. Using Vector NTI (v. 11; Invitrogen) software, primers were designed to amplify regions corresponding to the first cytoslic loop (L1; amino acids 356 to 483) and the distal end of the C-terminus (Ct-dis; amino acids 2133 to 2348) of rat CaV2.2 cDNA from P3 rat brain cDNA. The primers harbored restriction sites (Bam HI or Bgl II (5′) and Eco RI or Mfe I (3′)) to facilitate cloning into […]. In addition to the GST-tag, this vector contains the Glu tag, a sequence of six amino acids (EYMPME). Correctly-amplified PCR products and parent pGex-3x-Glu vector were digested with the indicated restriction enzymes, and then extracted following electrophoresis on an agarose gel. The extracted DNAs were quantified (Nanodrop 1000, Thermo Scientific), and ligations were performed using 6:1 and 3:1 insert to vector molar ratios. […]\nMonoclonal Glu antibody-saturated Protein G beads (GE Healthcare) carrying various CaV2.2 cytoplasmic loop constructs were incubated with rat brain synaptosome protein in the presence of TAT control or TAT CBD3 peptides (10 μM) in a total reaction volume of 400 μl. […] The samples were then washed three times with a 1000-fold excess of binding buffer, and the proteins were eluted in 40 μl of SDS gel buffer and boiled for 5 min, after which 20 μl of each assay was run on SDS-PAGE and analyzed by immunoblotting with CRMP-2."}},
  "note": "Read-outs that look alike come from different tables or passages of the source. Residues, ends and D or L forms follow the SMILES beside them.",
  "data": [
    {"molecule": "CC(C)C[C@H](NC(=O)CNC(=O)[C@H](CCCNC(=N)N)NC(=O)[C@@H]1CCCN1C(=O)[C@@H](NC(=O)CNC(=O)[C@H](CCCNC(=N)N)NC(=O)[C@H](CC(C)C)NC(=O)[C@H](CCC(=O)O)NC(=O)[C@H](C)NC(=O)[C@H](CC(C)C)NC(=O)[C@H](CCCNC(=N)N)NC(=O)[C@H](CO)NC(=O)[C@H](CCCNC(=N)N)NC(=O)[C@H](C)NC(=O)[C@H](CCCNC(=N)N)NC(=O)[C@H](CCCNC(=N)N)NC(=O)[C@H](CCCNC(=N)N)NC(=O)[C@H](CCC(N)=O)NC(=O)[C@H](CCCNC(=N)N)NC(=O)[C@H](CCCNC(=N)N)NC(=O)[C@H](CCCCN)NC(=O)[C@H](CCCCN)NC(=O)[C@H](CCCNC(=N)N)NC(=O)CNC(=O)[C@@H](N)Cc1ccc(O)cc1)C(C)C)C(=O)O", "note": "[TAT-CBD3] (H-YGRKKRRQRRRARSRLAELRGVPRGL-OH; N-terminus and C-terminus assumed)", "values": [
      {"measurement": "Elevated Plus Maze: Closed arm entries", "setting": "[1]; 0.1 mg/kg i.p.", "value": "19.1 ± 1.4"},
      {"measurement": "Elevated Plus Maze: Closed arm latency to enter", "setting": "[1]; 0.1 mg/kg i.p.", "value": "4.5 ± 2.2", "unit": "s"},
      {"measurement": "Elevated Plus Maze: Closed arm latency to exit", "setting": "[1]; 0.1 mg/kg i.p.", "value": "14.9 ± 2.9", "unit": "s"},
      {"measurement": "Elevated Plus Maze: Open arm entries", "setting": "[1]; 0.1 mg/kg i.p.", "value": "13.6 ± 1.6"},
      {"measurement": "Elevated Plus Maze: Open arm latency to enter", "setting": "[1]; 0.1 mg/kg i.p.", "value": "10.3 ± 2.7", "unit": "s"},
      {"measurement": "Elevated Plus Maze: Open arm latency to exit", "setting": "[1]; 0.1 mg/kg i.p.", "value": "17.7 ± 2.5", "unit": "s"},
      {"measurement": "Elevated Plus Maze: Closed arm entries", "setting": "[1]; 1 mg/kg i.p.", "value": "26.4 ± 4.2"},
      {"measurement": "Elevated Plus Maze: Closed arm latency to enter", "setting": "[1]; 1 mg/kg i.p.", "value": "2.4 ± 2.1", "unit": "s"},
      {"measurement": "Elevated Plus Maze: Closed arm latency to exit", "setting": "[1]; 1 mg/kg i.p.", "value": "11.1 ± 2.6", "unit": "s"},
      {"measurement": "Elevated Plus Maze: Open arm entries", "setting": "[1]; 1 mg/kg i.p.", "value": "19.7 ± 3.1"},
      {"measurement": "Elevated Plus Maze: Open arm latency to enter", "setting": "[1]; 1 mg/kg i.p.", "value": "10.1 ± 2.9", "unit": "s"},
      {"measurement": "Elevated Plus Maze: Open arm latency to exit", "setting": "[1]; 1 mg/kg i.p.", "value": "16.4 ± 3.1", "unit": "s"},
      {"measurement": "Elevated Plus Maze: Closed arm entries", "setting": "[1]; 10 mg/kg i.p.", "value": "27.4 ± 7.0"},
      {"measurement": "Elevated Plus Maze: Closed arm latency to enter", "setting": "[1]; 10 mg/kg i.p.", "value": "5.3 ± 2.2", "unit": "s"},
      {"measurement": "Elevated Plus Maze: Closed arm latency to exit", "setting": "[1]; 10 mg/kg i.p.", "value": "10.6 ± 3.5", "unit": "s"},
      {"measurement": "Elevated Plus Maze: Open arm entries", "setting": "[1]; 10 mg/kg i.p.", "value": "20.0 ± 6.1"},
      {"measurement": "Elevated Plus Maze: Open arm latency to enter", "setting": "[1]; 10 mg/kg i.p.", "value": "4.6 ± 1.9", "unit": "s"},
      {"measurement": "Elevated Plus Maze: Open arm latency to exit", "setting": "[1]; 10 mg/kg i.p.", "value": "11.1 ± 2.1", "unit": "s"},
      {"measurement": "EPM time in and entries into open/closed arms", "setting": "[1]; any dose, compared to TAT-Scramble", "value": "neither time spent in the open or closed arms, nor frequency of entries into the open nor closed arms were altered"},
      {"measurement": "coordination or spatial memory (Morris water maze)", "setting": "spatial memory", "value": "did not affect coordination or spatial memory"},
      {"measurement": "cell viability (MTT, absorbance at 490 nm)", "setting": "[2]", "value": "without affecting cell viability"},
      {"measurement": "cell viability (MTT, absorbance at 490 nm)", "setting": "[2]; listed as TAT CBD3", "value": "does not affect cell viability"},
      {"measurement": "accelerating rotarod performance", "setting": "motor coordination", "value": "had no effect in the accelerating rotarod test"}
    ]},
    {"molecule": "ARSRLAELRGVPRGL (CBD3)", "values": [
      {"measurement": "interaction between CRMP-2 and L1 or Ct-dis regions of CaV2.2", "setting": "[3]", "value": "disrupted the interaction"}
    ]}
  ]
}
